Measured values reported in article PMC6009911, “Inhibition of human cytochromes P450 2A6 and 2A13 by flavonoids, acetylenic thiophenes and sesquiterpene lactones from Pluchea indica and Vernonia cinerea” (Journal of Enzyme Inhibition and Medicinal Chemistry, 2017).
Read-outs that look alike come from different tables or passages of the source.

Columns and labels:
Assay type in all cases: biochemical
CYP2A13 [1] = target: T1, CYP2A13 (Homo sapiens, UniProt Q16696); test: Inhibition of CYP2A13-mediated coumarin 7-hydroxylation, enzymatic reconstitution assay
T1 construct: made in house
T1 sequence (Q16696 1-494): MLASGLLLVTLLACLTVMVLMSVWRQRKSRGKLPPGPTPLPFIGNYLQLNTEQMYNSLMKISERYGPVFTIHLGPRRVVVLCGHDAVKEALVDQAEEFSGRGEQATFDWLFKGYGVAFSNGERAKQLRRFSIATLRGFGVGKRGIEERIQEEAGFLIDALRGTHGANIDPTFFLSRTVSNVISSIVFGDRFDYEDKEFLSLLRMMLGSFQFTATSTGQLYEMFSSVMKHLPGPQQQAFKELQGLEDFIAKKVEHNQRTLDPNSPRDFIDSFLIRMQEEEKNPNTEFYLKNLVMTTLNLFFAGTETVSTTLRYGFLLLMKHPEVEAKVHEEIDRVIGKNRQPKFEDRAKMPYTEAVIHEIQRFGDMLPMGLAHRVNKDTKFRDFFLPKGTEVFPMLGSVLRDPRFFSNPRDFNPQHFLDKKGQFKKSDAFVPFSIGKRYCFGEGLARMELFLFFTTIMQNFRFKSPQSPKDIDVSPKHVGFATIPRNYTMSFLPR
Outline: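 Purified recombinant CYP2A6 or CYP2A13 reconstituted with rat CYPOR; coumarin 7-hydroxylation read by 7-hydroxycoumarin fluorescence (ex 355/em 460 nm), inhibition as % of vehicle control with IC50 fitted.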

CYP2A13 [2] = target: T1, CYP2A13; test: Mechanism-based (time- and NADPH-dependent) inactivation of CYP2A13
Outline: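 Inhibitor preincubated with enzyme and NADPH for 0, 10, 20 and 30 min before the reaction. KI and Kinact derived from double reciprocal plots of kobs versus inhibitor concentration by linear regression; methoxsalen served as reference inactivator.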

CYP2A13 [3] = target: T1, CYP2A13; test: Effects of trapping agents and dialysis on inactivation of CYP2A13; details: CYP2A13 inhibition reaction mixture, probe coumarin, compound 5 µM
Outline: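 Recombinant enzyme preincubated with inhibitor and NADPH for 0, 10, 20 and 30 min; KI and kinact taken from double-reciprocal plots of kobs versus inhibitor concentration by linear regression. Reversibility probed by dialysis and by adding trapping agents (GSH, semicarbazide, catalase or potassium ferricyanide). Methoxsalen served as mechanism-based control.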

CYP2A6 [4] = target: T2, CYP2A6 (Homo sapiens, UniProt P11509); test: Inhibition of CYP2A6-mediated coumarin 7-hydroxylation, enzymatic reconstitution assay; parameters: made in house
T2 sequence (P11509 1-494): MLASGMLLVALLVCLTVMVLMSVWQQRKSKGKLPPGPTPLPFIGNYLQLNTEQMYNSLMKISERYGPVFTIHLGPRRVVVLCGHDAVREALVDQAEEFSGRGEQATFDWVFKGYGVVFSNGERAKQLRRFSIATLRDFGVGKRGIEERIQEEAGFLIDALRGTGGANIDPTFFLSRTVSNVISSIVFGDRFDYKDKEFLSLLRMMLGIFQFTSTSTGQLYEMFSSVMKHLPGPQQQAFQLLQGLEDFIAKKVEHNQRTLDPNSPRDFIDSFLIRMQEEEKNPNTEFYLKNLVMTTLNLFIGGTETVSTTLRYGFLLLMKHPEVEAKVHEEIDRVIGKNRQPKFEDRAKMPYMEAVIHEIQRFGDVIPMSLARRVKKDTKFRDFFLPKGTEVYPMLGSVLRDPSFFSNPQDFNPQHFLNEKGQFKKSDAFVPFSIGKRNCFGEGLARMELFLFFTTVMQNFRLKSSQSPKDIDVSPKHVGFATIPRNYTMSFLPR
Procedure: Inhibitory effect of plant extracts, fractions, subfractions and constituents was determined by inhibition assay on CYP2A6- and CYP2A13-mediated coumarin 7-hydroxylation. The recombinant human CYP2A6, CYP2A13 and rat NADPH-dependent cytochrome P450 oxidoreductase (CYPOR) proteins were expressed, purified, according to the methods previously described. […] Rate of 7-hydroxycoumarin product formation was measured on spectrofluorometer (Shimadzu, Kyoto, Japan) at λex = 355 nm, λem = 460 nm. Inhibition effects were determined by incubation with extracts, fractions or purified compounds with coumarin substrate in the reaction mixture and calculated as per cent relative inhibition compared with vehicle control reaction[20] and IC50 values were calculated using GraphPad Prism 5 (GraphPad Software Inc., La Jolla, CA).
(§1) MBI requires NADPH and time to generate reactive intermediate as inhibitor and ultimately inactivates the enzyme. MBI was evaluated by pre-incubation with each test inhibitor in the reaction at different time periods (0, 10, 20 and 30 min) in the presence of NADPH for time-dependent assay, as described. The apparent inactivation constants, KI and Kinact, were obtained from double reciprocal plots of kobs versus inhibitor concentrations by linear regression analysis on GraphPad Prism 5. Methoxsalen was used as a control mechanism-based inhibitor for time- and NADPH-dependent inhibition assays.

CYP2A6 [5] = target: T2, CYP2A6; test: Mechanism-based (time- and NADPH-dependent) inactivation of CYP2A6; parameters: made in house
Procedure: as §1

CYP2A6 [6] = target: T2, CYP2A6; test: Effects of trapping agents and dialysis on inactivation of CYP2A6; parameters: made in house; details: CYP2A6 inhibition reaction mixture, probe coumarin, compound 5 µM
Procedure: as §1
To explore whether inactivation of CYP2As by thiophenes 9–11 and of CYP2A13 by hirsutinolides 5-8 could be reversed, the removal of reversible inhibitory compounds by dialysis and addition of trapping agents (GSH, semicarbazide, catalase or potassium ferricyanide) in the inhibition reaction mixture were performed. […] Similarly, mechanism-based inactivation of both CYP2A6 and CYP2A13 by thiophenes 9–11 could not be reversed (Table 3).

CYP2A6 [7] = target: T2, CYP2A6; test: Inhibition of CYP2A6-mediated nicotine metabolism; parameters: made in house; details: compound at IC50 value; nicotine 50 μM; 30 min; Supplemental Figure S2
Procedure: Supplementary Figure S2. Inhibition effects of thiophene 11 on CYP2A6-mediated […]
mediated nicotine metabolism (B). Nicotine metabolism in the presence and absence of inhibitory test compounds, at IC50 value, was performed by incubation of the reaction mixture with nicotine substrate (a final concentration of 50 μM) prior to initiation of each reaction with 50 μM NADPH at room temperature. Each reaction was terminated by addition of ice-cold acetronitrile at 30 min incubation and 50 pmol 7-hydroxycoumarin as internal standard was added. The reaction was centrifuged (12,000 rpm, 10 min, 4 °C) and 20 μl of each sample was analyzed on symmetry RP-C18 column (3.9×150 mm). Gradient condition was isocratic of 12% ACN: 2-propanol (7:3) in 10 mM potassium phosphate buffer (pH 7.4) at flow rate of 1 ml/min. The nicotine peak area in each reaction was compared with that of time zero. The enzyme activity was determined as percent substrate consumption over 30 min. The reactions were […]
(1 picture or pasted object on this page, not shown here)

[8] = time- and concentration-dependent inactivation
[9] = read-out: Per cent remaining activity, 70 μM K3Fe(CN)6
[10] = read-out: Per cent remaining activity, 2 mM GSH
[11] = read-out: Per cent remaining activity, 5 mM semicarbazide
[12] = read-out: Per cent remaining activity, 2000 U catalase
[13] = read-out: Per cent remaining activity, Dialysis (+) NADPH
[14] = read-out: Per cent remaining activity, Dialysis (−) NADPH
[15] = read-out: Per cent remaining activity, Pre-incubation

Question: What does the source list for `CC#Cc1ccc(C#CC#CC(O)CO)s1` (centres unmarked) [Thiophene 11, 2-(prop-1-inyl)-5–(5,6-dihydroxyhexa-1,3-diinyl) thiophene]?
Answer: CYP2A13 Mode of inhibition (CYP2A13 [1]): Mixed type; IC50 (CYP2A13 [1]; 10-min pre-incubation in the presence of NADPH, read-out: IC50 CYP2A13 Pre-incubation): 1.47 ± 0.12 µM; IC50 (CYP2A13 [1]; coincubation, coumarin 2 µM, read-out: IC50 CYP2A13 Coincubation): 2.4 ± 0.33 µM; Ki (CYP2A13 [1]; coumarin 0–40 µM): 1.08 ± 0.05 µM; kinact (CYP2A13 [2]; pre-incubation 0-30 min with NADPH): 0.000833 s⁻¹; KI (inactivation) (CYP2A13 [2]; pre-incubation 0-30 min with NADPH, read-out: CYP2A13 KI (inactivation constant)): 0.67 ± 0.08 µM; KI, CYP2A13 (in Figure 2) (CYP2A13 [2]; [8]): 0.67 ± 0.08; activity at 5 µM (CYP2A13 [3]; [9]): 18.87 ± 0.18%; activity at 5 µM (CYP2A13 [3]; [10]): 23.5 ± 1.72%; activity at 5 µM (CYP2A13 [3]; [11]): 19.6 ± 2.73%; activity at 5 µM (CYP2A13 [3]; [12]): 19.5 ± 2.95%; activity at 5 µM (CYP2A13 [3]; [13]): 19.6 ± 4.21%; activity at 5 µM (CYP2A13 [3]; [14]): 96.84 ± 0.73%; activity at 5 µM (CYP2A13 [3]; [15]): 20.2 ± 2.76%; CYP2A6 Mode of inhibition (CYP2A6 [4]): Mixed type; IC50 (CYP2A6 [4]; 10-min pre-incubation in the presence of NADPH, read-out: IC50 CYP2A6 Pre-incubation): 0.18 ± 0.01 µM; IC50 (CYP2A6 [4]; coincubation, coumarin 2 µM, read-out: IC50 CYP2A6 Coincubation): 3.9 ± 0.2 µM; Ki (CYP2A6 [4]; coumarin 0–40 µM): 1.8 ± 0.18 µM; kinact (CYP2A6 [5]; human, recombinant human CYP2A6, probe coumarin, pre-incubation 0-30 min with NADPH): 0.00167 s⁻¹; KI (inactivation) (CYP2A6 [5]; human, recombinant human CYP2A6, probe coumarin, pre-incubation 0-30 min with NADPH, read-out: CYP2A6 KI (inactivation constant)): 0.11 ± 0.02 µM; KI, CYP2A6 (in Figure 2) (CYP2A6 [5]; [8]): 0.11 ± 0.02; activity at 5 µM (CYP2A6 [6]; [9]): 11.2 ± 2.96%; activity at 5 µM (CYP2A6 [6]; [10]): 8.42 ± 0.9%; activity at 5 µM (CYP2A6 [6]; [11]): 12.9 ± 3.47%; activity at 5 µM (CYP2A6 [6]; [12]): 14.4 ± 1.41%; activity at 5 µM (CYP2A6 [6]; [13]): 10.1 ± 1.84%; activity at 5 µM (CYP2A6 [6]; [14]): 82.4 ± 2.49%; activity at 5 µM (CYP2A6 [6]; [15]): 12.5 ± 1.93%; inhibition of CYP2A6-mediated nicotine metabolism (CYP2A6 [7]): showed inhibition
